# Experimental data: article PMC8359193, “Summary of reference chemicals evaluated by the fish short‐term reproduction assay, OECD TG229, using Japanese Medaka, Oryzias latipes” (Journal of Applied Toxicology, 2021)
# What was measured:
# [1] = system: Japanese medaka; conditions: cited from earlier work
# [2] = P4 concentration in test solutions with and without UV irradiation (biodegradation check); type: physicochemical
# [3] = molecular target: medaka ARβ (mARβ) (Oryzias latipes, UniProt D1MV73); experiment: Medaka ARβ reporter gene assay (RGA), antagonist assay with 50 nM 11KT, HepG2 cells; type: cell-based, Japanese medaka (Oryzias latipes); conditions: mARβ RGA antagonist assay, 50 nM 11KT-induced activity; ND = no significant response even at the highest assay concentration (in parentheses)
# Procedure: To support interpretation of the biological effects observed in the FSTRA studies, in vitro RGAs using medaka Esr1 (mEsr1) and medaka ARβ (mARβ) were performed for the 16 test chemicals. In the present study, Esr1 and ARβ, which are ancestral subtypes among Esrs and ARs in Japanese medaka, were selected based on the phylogenetical analyses of Esr and AR with each receptor RGAs (Ogino et al., [2016], [2018]; Tohyama et al., [2015]).
# The mARβ RGA in which the agonist and the antagonist assays were performed as same as the mEsr1 RGA was carried out according to the methods previously reported by Lange et al. ([2015]). For the assays, human liver cancer cell line, HepG2, was used as the host cells, and mARβ/pcDNA3.1, MMTV‐Luc, and pRL‐TK‐Rlu were used as mARβ expression vector, reporter vector, and internal control vector, respectively. Other materials and methods, for example, operating procedure, reagents, and incubation conditions, were almost the same as the mEsr1 RGA previously described beside that 11KT (Sigma‐Aldrich, purity 99.0%), a main AR ligand in fish, was competitively spiked at 50 nM into the test medium with test chemicals in antagonist assay. In the agonist and the antagonist assays, 11KT and 2‐hydroxyflutamide (2HFLT; Sigma‐Aldrich, purity 98.5%) were used as positive controls, respectively.
# Effect concentrations, that is, EC50 (a half maximal effective concentration) in the agonist assay and IC50 (a half maximal inhibitory concentration) in the antagonist assay, were estimated by nonlinear curve fitting (e.g., three parameters logistic regression curve) using GraphPad Prism (GraphPad Software Inc., La Jolla, CA, USA).
# Chain of medaka ARβ (mARβ) (D1MV73 entry or part of it): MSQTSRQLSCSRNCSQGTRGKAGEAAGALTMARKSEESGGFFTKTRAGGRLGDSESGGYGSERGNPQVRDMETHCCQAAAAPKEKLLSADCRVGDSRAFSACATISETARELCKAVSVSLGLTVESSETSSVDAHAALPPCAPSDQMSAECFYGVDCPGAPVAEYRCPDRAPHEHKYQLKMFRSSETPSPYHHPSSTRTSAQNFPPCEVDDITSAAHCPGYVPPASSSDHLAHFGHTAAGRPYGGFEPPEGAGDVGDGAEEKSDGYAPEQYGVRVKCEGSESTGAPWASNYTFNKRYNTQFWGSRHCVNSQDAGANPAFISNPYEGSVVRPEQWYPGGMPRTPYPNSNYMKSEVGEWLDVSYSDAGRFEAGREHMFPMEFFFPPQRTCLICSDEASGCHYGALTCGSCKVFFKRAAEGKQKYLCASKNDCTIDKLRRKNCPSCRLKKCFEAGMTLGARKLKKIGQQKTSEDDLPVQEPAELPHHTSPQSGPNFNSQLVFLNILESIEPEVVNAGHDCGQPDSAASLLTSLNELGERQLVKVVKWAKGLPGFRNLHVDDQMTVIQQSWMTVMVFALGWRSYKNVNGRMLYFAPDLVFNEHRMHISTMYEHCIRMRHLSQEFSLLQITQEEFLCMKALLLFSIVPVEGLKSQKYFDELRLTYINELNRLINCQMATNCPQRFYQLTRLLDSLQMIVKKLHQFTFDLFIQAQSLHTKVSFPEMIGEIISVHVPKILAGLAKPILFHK
compound,measurement,setting,value
"C[C@]12C=CC3=C4CCC(=O)C=C4CC[C@H]3[C@@H]1CC[C@@H]2O [TRB, 17β‐Trenbolone]",concentration causing reduction of reproduction,[1]; in vivo,0.013 ng/mL
same,concentration causing induction of SSC in females,"[1]; long-term testing, ref Flynn et al., 2017",32 ng/L
"CC(=O)[C@H]1CC[C@H]2[C@@H]3CCC4=CC(=O)CC[C@]4(C)[C@H]3CC[C@]12C [P4, Progesterone]","P4 concentration, % of the nominal",[2]; test solution after 24-h UV treatment,more than 80 % of the nominal
same,"P4 concentration, % of the nominal",[2]; test solution without UV treatment,less than 20 % of the nominal
"CCCCCCCCCCCCOS(=O)(=O)[O-].[Na+] [SDS, Sodium dodecyl sulfate]",IC50,[3],> 100000 nM
"C#C[C@]1(O)CC[C@H]2[C@@H]3CCc4cc(O)ccc4[C@H]3CC[C@@]21C [EE2, 17α‐Ethynylestradiol]",IC50,[3],140 nM
